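Grown in 96-well plates, cells were treated for 48 hours with each compound at five concentrations. Insufficient inhibition: endpoint recorded as highest concentration tested. GI50 is the concentration that inhibits growth by half.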 Activity calls are given as the source filed them. Rule as the data show it: active = GI50 up to about 1.1 µM and inactive = higher.
Tests used:
Test in all cases: inhibition of tumour cell growth, NCI panel, 48 h
[1] = system: NCI-H23
[2] = system: COLO 205
[3] = system: HCT-15
[4] = system: A549
[5] = system: DMS-273
[6] = system: KM12
[7] = system: SW-620
[8] = system: RXF 631
[9] = system: DMS-114
[10] = system: SF-539
[11] = system: SNB-75
[12] = system: SK-OV-3
[13] = system: OVCAR-3
[14] = system: NCI-H226
[15] = system: EKVX
[16] = system: LXFL 529
[17] = system: SN12C
[18] = system: ACHN
[19] = system: NCI-H522
[20] = system: DLD-1
[21] = system: HOP-92
[22] = system: Malme-3M
[23] = system: A498
[24] = system: 786-0
[25] = system: HCT-116
[26] = system: SK-MEL-5
[27] = system: NCI-H460
[28] = system: K562
[29] = system: OVCAR-8
[30] = system: OVCAR-5
[31] = system: UO-31
[32] = system: HOP-18
[33] = system: HCC 2998
[34] = system: SNB-19
[35] = system: RPMI-8226
[36] = system: CAKI-1
[37] = system: TK-10
[38] = system: XF498
[39] = system: CCRF-CEM
[40] = system: LOX IMVI
[41] = system: KM-20L2
[42] = system: HOP-62
[43] = system: SK-MEL-28
[44] = system: U-251
[45] = system: HT-29
[46] = system: UACC-257
[47] = system: RXF 393
[48] = system: SF-268
[49] = system: UACC-62
[50] = system: OVCAR-4
[51] = system: IGROV-1
[52] = system: SK-MEL-2
[53] = system: SF-295
[54] = system: M14
[55] = system: MOLT-4
[56] = system: M19-MEL
[57] = system: SNB-78
[58] = system: HL-60

Measured: GI50

CC(=O)O[C@H]1[C@H](O[C@H]2CC[C@]34C[C@]35CC[C@]3(C)[C@@H]([C@@]6(C)CC[C@@H](C(C)(C)O)O6)[C@@H](O)C[C@@]3(C)[C@@H]5C[C@H](O[C@@H]3O[C@H](CO)[C@@H](O)[C@H](O)[C@H]3O)[C@H]4C2(C)C)OC[C@@H](O)[C@@H]1O
42.2 µM: [3]
inactive: [1] > 100 µM | [2] 46.8 µM | [4] > 100 µM | [5] 44.6 µM | [6] > 100 µM | [7] 25.4 µM | [8] > 100 µM | [9] 66.2 µM | [10] 40.4 µM | [11] > 100 µM | [12] > 100 µM | [13] > 100 µM | [14] > 100 µM | [15] > 100 µM | [16] 74.8 µM | [17] > 100 µM | [18] > 100 µM | [19] > 100 µM | [20] 71.1 µM | [21] > 100 µM | [22] > 100 µM | [23] > 100 µM | [24] 42.6 µM | [25] > 100 µM | [26] > 100 µM | [27] 71 µM | [28] 45.3 µM | [29] > 100 µM | [30] 72.6 µM | [31] > 100 µM | [32] > 100 µM | [33] > 100 µM | [34] > 100 µM | [35] 52.6 µM | [36] > 100 µM | [37] > 100 µM | [38] > 100 µM | [39] 31.6 µM | [40] 44 µM | [41] 69.7 µM | [42] > 100 µM | [43] > 100 µM | [44] 55 µM | [45] 85.5 µM | [46] > 100 µM | [47] > 100 µM | [48] > 100 µM | [49] > 100 µM | [50] > 100 µM | [51] > 100 µM | [52] > 100 µM | [53] > 100 µM | [54] 54.6 µM | [55] > 100 µM | [56] 78.5 µM | [57] > 100 µM | [58] 35.6 µM

— ChEMBL document CHEMBL1201862, “PubChem BioAssay data set” (2004)
